According to the CheMixHub drug solubility set:

Experiment: xn = mol fraction of the nth substance listed, in the solute-free solvent

COC(=O)C1=C(C)NC(C)=C(C(=O)OCC(C)C)C1c1ccccc1[N+](=O)[O-] (configuration not stated) + CCO + O
solubility (g/100 g solution)
Details	278.15 K	283.15 K	288.15 K	293.15 K	298.15 K	303.15 K	308.15 K	313.15 K	318.15 K
x2 = 0.08908	0.379	0.503	0.648	0.817	0.987	1.2	1.42	1.68	1.99
x2 = 0.2068	1.23	1.53	1.87	2.25	2.73	3.28	3.94	4.74	5.64
x2 = 0.3698	1.72	2.14	2.63	3.16	3.79	4.51	5.31	6.22	7.38
x2 = 0.6101	2.18	2.75	3.38	4.12	5	6	7.01	8.24	9.61

CS(=O)(=O)c1ccc(C(O)C(CF)NC(=O)C(Cl)Cl)cc1 (configuration not stated) + CCO + O
solubility (g/100 g solution)
Details	278.15 K	283.15 K	288.15 K	293.15 K	298.15 K	303.15 K	308.15 K	313.15 K	318.15 K
x2 = 0.04165	0.113	0.15	0.202	0.267	0.34	0.453	0.569	0.728	0.926
x2 = 0.08908	0.225	0.295	0.39	0.507	0.655	0.841	1.06	1.33	1.64
x2 = 0.1436	0.376	0.498	0.639	0.817	1.03	1.29	1.6	1.99	2.41
x2 = 0.2068	0.536	0.699	0.887	1.13	1.42	1.76	2.15	2.65	3.18
x2 = 0.2812	0.663	0.857	1.08	1.38	1.72	2.13	2.59	3.18	3.85
x2 = 0.3698	0.77	0.998	1.27	1.6	2.01	2.48	3.02	3.69	4.43
x2 = 0.4772	0.869	1.11	1.43	1.79	2.22	2.75	3.35	4.05	4.88
x2 = 0.6101	0.959	1.22	1.55	1.94	2.42	2.98	3.59	4.37	5.21
x2 = 0.7788	1.01	1.3	1.62	2.05	2.53	3.08	3.75	4.55	5.42
